The text below walks through data of the supplement of paper PMC10307832.

Common to all, as to assay: relative viability (nuclei count vs DMSO), 5 days (fraction); higher = more cells survive
Compound in the experiment “Tosedostat + Foretinib”: CC(C)C[C@@H](C(=O)N[C@H](C(=O)OC1CCCC1)c1ccccc1)[C@H](O)C(=O)NO [Tosedostat] + COc1cc2c(Oc3ccc(NC(=O)C4(C(=O)Nc5ccc(F)cc5)CC4)cc3F)ccnc2cc1OCCCN1CCOCC1 [Foretinib] (partner 0.25 µM)
In short, it runs like this:
(§1)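 Relative viability equals treated-well nuclei counts divided by vehicle-well nuclei counts. Counts came from 4× images of lung cancer cell lines grown in 1536-well plates for 5 days after pin-tool dosing on the day after seeding. Dosing used one drug alone or a fixed anchor-drug dose plus five library-drug doses (not always all listed) in √10 steps, and values are medians of duplicate plates.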

Compound in experiment [1]: CC1=NN=C(O1)C2=NN=C(C=C2)N3CCC(CC3)OC4=C(C=CC(=C4)F)Cl + Cc1cc(Nc2cc(N3CCN(C)CC3)nc(Sc3ccc(NC(=O)C4CC4)cc3)n2)n[nH]1 [Tozasertib] (partner 0.1 µM)
The method, boiled down: as §1

Compound in experiment [2]: CC1=NN=C(O1)C2=NN=C(C=C2)N3CCC(CC3)OC4=C(C=CC(=C4)F)Cl + O=C(c1cc(Cc2n[nH]c(=O)c3ccccc23)ccc1F)N1CCN(C(=O)C2CC2)CC1 [Olaparib] (partner 8 µM)
In short, it runs like this: as §1

Compound in the experiment “Tosedostat + Pictilisib”: CC(C)C[C@@H](C(=O)N[C@H](C(=O)OC1CCCC1)c1ccccc1)[C@H](O)C(=O)NO [Tosedostat] + CS(=O)(=O)N1CCN(Cc2cc3nc(-c4cccc5[nH]ncc45)nc(N4CCOCC4)c3s2)CC1 [Pictilisib] (partner 1 µM)
In short, it runs like this: as §1

As for NCI-H2170, the relative viability with Tosedostat + Foretinib (first compound 0.02 µM) was determined as 1.01; with Tosedostat + Foretinib (first compound 0.06325 µM), 1.04; in the experiment with Tosedostat + Foretinib (first compound 0.2 µM), 0.958; with Tosedostat + Foretinib (first compound 0.6325 µM) it was 0.959; with Tosedostat + Foretinib (first compound 2 µM) it was 1.05; in experiment [1] (first compound 0.253 µM) it was 0.306. Moreover, the relative viability in experiment [1] (first compound 0.8 µM) is 0.416; in experiment [1] (first compound 2.53 µM) it was 0.392; in experiment [1] (first compound 8 µM) it was 0.331; in experiment [2] (first compound 0.253 µM), 0.303; in experiment [2] (first compound 0.8 µM), 0.248; in experiment [2] (first compound 2.53 µM), 0.342. For the same cell line, the relative viability in experiment [2] (first compound 8 µM) came out at 0.256; with Tosedostat + Pictilisib (first compound 0.02 µM), 0.31; in the experiment with Tosedostat + Pictilisib (first compound 0.06325 µM), 0.33; with Tosedostat + Pictilisib (first compound 0.2 µM), 0.385; with Tosedostat + Pictilisib (first compound 0.6325 µM), 0.291; with Tosedostat + Pictilisib (first compound 2 µM), 0.289.

Turning to NCI-H1395, the relative viability with Tosedostat + Foretinib (first compound 0.02 µM) came out at 0.917; in the experiment with Tosedostat + Foretinib (first compound 0.06325 µM) it was 1.05; with Tosedostat + Foretinib (first compound 0.2 µM), 0.952; in the experiment with Tosedostat + Foretinib (first compound 0.6325 µM) it was 0.918; in the experiment with Tosedostat + Foretinib (first compound 2 µM), 0.871; in experiment [1] (first compound 0.253 µM) it was 0.69. In addition, the relative viability turned out to be 0.581 in experiment [1] (first compound 0.8 µM); 0.72 in experiment [1] (first compound 2.53 µM); 0.683 in experiment [1] (first compound 8 µM); 0.482 in experiment [2] (first compound 0.253 µM); 0.539 in experiment [2] (first compound 0.8 µM); 0.445 in experiment [2] (first compound 2.53 µM). Moreover, the relative viability in experiment [2] (first compound 8 µM) came out at 0.448; in the experiment with Tosedostat + Pictilisib (first compound 0.02 µM), 0.627; with Tosedostat + Pictilisib (first compound 0.06325 µM), 0.799; with Tosedostat + Pictilisib (first compound 0.2 µM), 0.601; with Tosedostat + Pictilisib (first compound 0.6325 µM), 0.606; with Tosedostat + Pictilisib (first compound 2 µM), 0.567.

Take NCI-H358: the relative viability with Tosedostat + Foretinib (first compound 0.02 µM) stood at 0.872; in the experiment with Tosedostat + Foretinib (first compound 0.06325 µM) it was 0.634; with Tosedostat + Foretinib (first compound 0.2 µM), 0.473; in the experiment with Tosedostat + Foretinib (first compound 0.6325 µM) it was 0.289; in the experiment with Tosedostat + Foretinib (first compound 2 µM), 0.347; in experiment [1] (first compound 0.253 µM), 0.107. For the same cell line, the relative viability in experiment [1] (first compound 0.8 µM) came out at 0.0958; in experiment [1] (first compound 2.53 µM), 0.116; in experiment [1] (first compound 8 µM), 0.0977; in experiment [2] (first compound 0.253 µM), 0.296; in experiment [2] (first compound 0.8 µM) it was 0.275; in experiment [2] (first compound 2.53 µM), 0.321. Moreover, the relative viability amounted to 0.26 in experiment [2] (first compound 8 µM); 0.336 with Tosedostat + Pictilisib (first compound 0.02 µM); 0.366 with Tosedostat + Pictilisib (first compound 0.06325 µM); 0.287 with Tosedostat + Pictilisib (first compound 0.2 µM); 0.239 in the experiment with Tosedostat + Pictilisib (first compound 0.6325 µM); 0.327 with Tosedostat + Pictilisib (first compound 2 µM).

With SW 1573, the relative viability with Tosedostat + Foretinib (first compound 0.02 µM) stood at 0.877; with Tosedostat + Foretinib (first compound 0.06325 µM), 0.906; with Tosedostat + Foretinib (first compound 0.2 µM), 0.924; in the experiment with Tosedostat + Foretinib (first compound 0.6325 µM) it was 0.825; with Tosedostat + Foretinib (first compound 2 µM), 0.974; in experiment [1] (first compound 0.253 µM), 0.131. Besides, the relative viability was determined as 0.13 in experiment [1] (first compound 0.8 µM); 0.181 in experiment [1] (first compound 2.53 µM); 0.246 in experiment [1] (first compound 8 µM); 0.524 in experiment [2] (first compound 0.253 µM); 0.519 in experiment [2] (first compound 0.8 µM); 0.426 in experiment [2] (first compound 2.53 µM). Further, the relative viability in experiment [2] (first compound 8 µM) was found to be 0.412; with Tosedostat + Pictilisib (first compound 0.02 µM), 0.477; in the experiment with Tosedostat + Pictilisib (first compound 0.06325 µM) it was 0.485; in the experiment with Tosedostat + Pictilisib (first compound 0.2 µM), 0.484; in the experiment with Tosedostat + Pictilisib (first compound 0.6325 µM) it was 0.485; in the experiment with Tosedostat + Pictilisib (first compound 2 µM) it was 0.388.

For CAL-12T, the relative viability in the experiment with Tosedostat + Foretinib (first compound 0.02 µM) amounted to 1.15; with Tosedostat + Foretinib (first compound 0.06325 µM) it was 1.04; with Tosedostat + Foretinib (first compound 0.2 µM), 1.22; in the experiment with Tosedostat + Foretinib (first compound 0.6325 µM), 1.11; with Tosedostat + Foretinib (first compound 2 µM) it was 1.05; in experiment [1] (first compound 0.253 µM) it was 0.26. Further, the relative viability in experiment [1] (first compound 0.8 µM) came out at 0.241; in experiment [1] (first compound 2.53 µM) it was 0.227; in experiment [1] (first compound 8 µM) it was 0.216; in experiment [2] (first compound 0.253 µM), 0.639; in experiment [2] (first compound 0.8 µM), 0.68; in experiment [2] (first compound 2.53 µM), 0.651. Moreover, the relative viability in experiment [2] (first compound 8 µM) is 0.644; with Tosedostat + Pictilisib (first compound 0.02 µM) it was 0.471; with Tosedostat + Pictilisib (first compound 0.06325 µM), 0.417; with Tosedostat + Pictilisib (first compound 0.2 µM) it was 0.422; with Tosedostat + Pictilisib (first compound 0.6325 µM), 0.484; in the experiment with Tosedostat + Pictilisib (first compound 2 µM), 0.423.
